Reference: patent US11655235B2, “Pyrrolidine and piperidine compounds” (YUHAN CORPORATION, priority 2019, dated 2023)
Where two headings read alike, the source gives them in different places.

Tests used:
Type in all cases: biochemical
Recombinant human FAP [1] = target: T1, Recombinant human FAP (Homo sapiens, UniProt Q12884); test: FAP inhibition, fluorogenic substrate Z-Gly-Pro-AMC
T1 construct: purchased R&D systems
T1 sequence (Q12884 1-760): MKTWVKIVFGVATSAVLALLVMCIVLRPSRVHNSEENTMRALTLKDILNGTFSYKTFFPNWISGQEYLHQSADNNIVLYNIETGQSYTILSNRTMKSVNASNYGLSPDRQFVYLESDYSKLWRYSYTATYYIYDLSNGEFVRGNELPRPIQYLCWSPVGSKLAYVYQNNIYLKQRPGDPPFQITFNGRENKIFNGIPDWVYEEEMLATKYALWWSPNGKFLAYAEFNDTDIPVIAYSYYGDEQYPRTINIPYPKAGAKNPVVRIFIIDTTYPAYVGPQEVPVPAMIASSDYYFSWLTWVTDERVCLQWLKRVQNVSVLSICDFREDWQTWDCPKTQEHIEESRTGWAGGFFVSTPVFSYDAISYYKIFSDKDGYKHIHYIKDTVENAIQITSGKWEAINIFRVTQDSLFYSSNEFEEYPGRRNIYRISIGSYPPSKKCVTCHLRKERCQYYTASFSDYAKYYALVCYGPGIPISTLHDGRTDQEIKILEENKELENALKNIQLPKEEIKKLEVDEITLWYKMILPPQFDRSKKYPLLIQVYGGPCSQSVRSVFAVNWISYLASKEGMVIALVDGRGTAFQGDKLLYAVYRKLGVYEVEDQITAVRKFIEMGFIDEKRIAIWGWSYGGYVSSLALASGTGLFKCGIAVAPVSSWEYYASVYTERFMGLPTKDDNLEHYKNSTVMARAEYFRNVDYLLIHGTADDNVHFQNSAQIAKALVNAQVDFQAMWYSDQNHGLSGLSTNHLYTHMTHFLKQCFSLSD
How it was run: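 Eight-point compound dilutions (≤0.1% DMSO) were incubated at 25° C with 10 ng recombinant human FAP in Tris pH 7.5/1 M NaCl/BSA buffer and Z-Gly-Pro-AMC. Inhibition was taken as % drop in fluorescence rate (380/460 nm) against uninhibited control; IC50 came from a four-parameter logistic fit.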

DPP4 = DPP4 (Homo sapiens, UniProt P27487); test: DPP4 inhibition, fluorogenic substrate H-Gly-Pro-AMC; design: purchased R&D Systems; settings: for inhibition at 1 µM: read-out: hDPP4 inhibition % at 1 μM
Sequence of DPP4 (P27487 whole entry): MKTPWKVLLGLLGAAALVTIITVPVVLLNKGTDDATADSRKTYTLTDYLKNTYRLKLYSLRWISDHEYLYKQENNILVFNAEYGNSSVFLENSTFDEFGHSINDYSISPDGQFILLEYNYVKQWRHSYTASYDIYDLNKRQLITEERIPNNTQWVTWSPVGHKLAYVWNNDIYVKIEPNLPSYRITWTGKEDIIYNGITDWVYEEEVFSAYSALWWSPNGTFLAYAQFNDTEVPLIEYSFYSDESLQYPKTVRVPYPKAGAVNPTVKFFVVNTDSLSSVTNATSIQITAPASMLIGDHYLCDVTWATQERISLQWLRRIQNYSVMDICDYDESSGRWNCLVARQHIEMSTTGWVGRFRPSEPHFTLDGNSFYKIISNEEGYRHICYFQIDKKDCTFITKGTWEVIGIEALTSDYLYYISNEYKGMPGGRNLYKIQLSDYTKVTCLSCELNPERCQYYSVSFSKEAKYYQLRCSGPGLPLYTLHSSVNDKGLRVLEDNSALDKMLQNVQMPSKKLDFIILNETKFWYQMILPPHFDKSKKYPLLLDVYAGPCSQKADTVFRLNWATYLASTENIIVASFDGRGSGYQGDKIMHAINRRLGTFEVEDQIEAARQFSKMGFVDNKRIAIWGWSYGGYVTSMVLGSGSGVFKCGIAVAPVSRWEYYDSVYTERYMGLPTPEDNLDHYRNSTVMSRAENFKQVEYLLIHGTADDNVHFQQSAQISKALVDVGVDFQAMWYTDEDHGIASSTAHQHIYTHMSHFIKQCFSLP

recombinant human DPP7 = target: T2, recombinant human DPP7 (Homo sapiens, UniProt Q9UHL4); test: DPP7 inhibition, fluorogenic substrate Lys-Pro-AMC
T2 construct: purchased R&D Systems
Protocol: (§1) The compounds according to the present technology were evaluated in terms of the inhibitory effect on the activity of dipeptidyl peptidases including FAP by using a substrate producing fluorescent substances upon enzymatic decomposition. The test was conducted at 25° C. to get a final reaction volume of 100 μL in a 96 black well plate. […] Briefly, the test compounds were dissolved in dimethyl sulfoxide (DMSO) at a concentration of 20 mM and then subjected to serial dilution, thereby creating an 8 point curve. As for the control group, a 6 point curve created by serial dilution of Talabostat in the same buffer solution was used. Fluorescence intensity was measured using a microplate reader (Flexstation3, Molecular Devices) under the wavelength condition exciting at 380 nm and reading the emission at 460 nm. The inhibitory effect of the test compounds was measured as a decrease (%) in the signal rate as compared to the control group without any inhibitor. Data was fixed to a logistic model with four variables and IC50 value was calculated using GraphPad Prism program. As for recombinant human DPP4 (R&D Systems), 25 mM tris (pH 8.0) buffer as a buffer solution and H-Gly-Pro-AMC (Bachem) as a substrate were used. As for recombinant human DPP7 (R&D Systems), 25 mM MES (pH 6.0) buffer as a buffer solution and Lys-Pro-AMC (Bachem) as a substrate were used. As for recombinant human DPP8 (PBS Bioscience), as a buffer solution, a 10 mM tris (pH 7.4) buffer comprising 10 mM of magnesium chloride and 0.05% of Tween 20, and Z-Ala-Pro-AMC (BPS Bioscience) as a substrate were used. As for recombinant human DPP9 (R&D Systems), a 25 mM tris (pH 8.0) buffer as a buffer solution and H-Gly-Pro-AMC (Bachem) as a substrate were used. As for recombinant human PREP (R&D System), as a buffer solution, a 25 mM tris (pH 7.5) buffer comprising 250 mM sodium chloride and 2.5 mM DTT (Dithiolthreitol), and Z-Gly-Pro-AMC (Bachem) as a substrate were used. The evaluation was made by using 10 ng of DPP4, PDD7, and PREP, 20 ng of DPP8, and 50 ng of DPP9 based on the final reaction. In the evaluation of DPP4, the test compounds were subjected to serial dilution in a buffer under the condition containing up to 0.1% of DMSO. In the evaluation of DPP7, DPP8, DPP9, and PREP, the test compounds were subjected to serial dilution in each buffer under the condition containing up to 0.5% of DMSO.

Recombinant human FAP [2] = target: T1, Recombinant human FAP; test: FAP FRET assay, FGF21-sequence FRET peptide substrate; settings: FRET peptide with human FGF21 sequence, 6 μM, 37° C.
Protocol: The compounds according to the present technology were evaluated in terms of the inhibitory effect on the activity of dipeptidyl peptidases including FAP by using a substrate producing fluorescent substances upon enzymatic decomposition. The test was conducted at 25° C. to get a final reaction volume of 100 μL in a 96 black well plate. […] Briefly, the test compounds were dissolved in dimethyl sulfoxide (DMSO) at a concentration of 20 mM and then subjected to serial dilution, thereby creating an 8 point curve. As for the control group, a 6 point curve created by serial dilution of Talabostat in the same buffer solution was used. Fluorescence intensity was measured using a microplate reader (Flexstation3, Molecular Devices) under the wavelength condition exciting at 380 nm and reading the emission at 460 nm. The inhibitory effect of the test compounds was measured as a decrease (%) in the signal rate as compared to the control group without any inhibitor. Data was fixed to a logistic model with four variables and IC50 value was calculated using GraphPad Prism program. For the FAP FRET assay, recombinant human FAP (R&D systems) was diluted with 50 mM HEPES (pH 7.2) buffer comprising 150 mM of sodium chloride, 0.1 mg/ml of bovine serum albumin (BSA) and 1 mM EDTA to be 10 ng per final reaction. The test compounds were subjected to serial dilution in a buffer under the condition containing up to 0.1% of DMSO. FRET peptides containing human FGF21 sequence ([…]) conjugated with HyLite Fluor 488 and dark quencher QXL 520 (Anaspec) was used as a substrate. By dissolving in DMSO and then diluting in the same buffer, the substrate was added to be 6 μM per final reaction. All reactions of FRET assay was conducted at 37° C.

recombinant human DPP9 = target: T3, recombinant human DPP9 (Homo sapiens, UniProt Q86TI2); test: DPP9 inhibition, fluorogenic substrate H-Gly-Pro-AMC; settings: at 1 μM
T3 construct: purchased R&D Systems
T3 sequence (Q86TI2 whole entry): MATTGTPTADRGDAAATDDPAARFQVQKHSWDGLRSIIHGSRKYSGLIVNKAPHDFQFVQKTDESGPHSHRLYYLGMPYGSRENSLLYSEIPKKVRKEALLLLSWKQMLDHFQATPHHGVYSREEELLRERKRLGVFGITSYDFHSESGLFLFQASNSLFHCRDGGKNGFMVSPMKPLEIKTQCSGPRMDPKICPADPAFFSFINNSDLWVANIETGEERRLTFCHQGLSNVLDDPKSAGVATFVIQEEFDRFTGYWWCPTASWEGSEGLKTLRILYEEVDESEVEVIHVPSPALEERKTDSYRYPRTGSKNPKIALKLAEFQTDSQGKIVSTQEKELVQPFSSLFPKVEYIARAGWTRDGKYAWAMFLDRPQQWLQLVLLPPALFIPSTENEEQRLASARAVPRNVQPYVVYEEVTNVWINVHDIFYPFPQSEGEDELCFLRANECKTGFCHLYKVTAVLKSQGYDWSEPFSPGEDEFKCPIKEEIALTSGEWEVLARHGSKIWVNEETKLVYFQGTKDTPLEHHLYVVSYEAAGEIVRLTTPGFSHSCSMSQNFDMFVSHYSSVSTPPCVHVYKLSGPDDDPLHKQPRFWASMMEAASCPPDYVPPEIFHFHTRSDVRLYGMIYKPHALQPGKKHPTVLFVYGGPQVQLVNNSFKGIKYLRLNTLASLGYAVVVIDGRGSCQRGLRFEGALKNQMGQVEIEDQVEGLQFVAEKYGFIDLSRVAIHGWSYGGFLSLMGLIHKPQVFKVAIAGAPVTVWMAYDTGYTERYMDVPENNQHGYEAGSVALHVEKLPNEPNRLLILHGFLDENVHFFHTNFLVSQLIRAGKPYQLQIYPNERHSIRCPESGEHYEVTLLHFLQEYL
Protocol: as §1

[3] = 25° C., Z-Gly-Pro-AMC substrate
[4] = 25° C., H-Gly-Pro-AMC substrate
[5] = recombinant human FAP, substrate Z-Gly-Pro-AMC

N#C[C@@H]1CCCN1C(=O)CN1CC[C@H](Nc2cncc3ccoc23)C1 [Example 23, (S)-1-(2-((S)-3-(furo[3,2-c]pyridin-7-ylamino)pyrrolidin-1-yl)acetyl)pyrrolidine-2-carbonitrile]
IC50 (Recombinant human FAP [1]; [3]): 3.08 nM | IC50 (DPP4; [4]): > 1000 nM | IC50 (recombinant human DPP7): 951 nM

N#C[C@@H]1CCCN1C(=O)CN1CC[C@H](Oc2ccnc3ccccc23)C1 [Example 61, (S)-1-(2-((S)-3-(quinolin-4-yloxy)pyrrolidin-1-yl)acetyl)pyrrolidine-2-carbonitrile]
IC50 (Recombinant human FAP [1]; [3]): 21.5 nM | IC50 (DPP4; [4]): > 1000 nM | IC50 (recombinant human DPP7): 1150 nM

N#C[C@@H]1CCCN1C(=O)CN1CCC(Nc2cccc3ncc(C(F)(F)F)cc23)CC1 [Example 387, (2S)-1-[2-[4-[[3-(trifluoromethyl)-5-quinolyl]amino]-1-piperidyl]acetyl]pyrrolidine-2-carbonitrile]
IC50 (Recombinant human FAP [2]): 32.4 nM

COc1ccc2occ(C(=O)N[C@H]3CCN(CC(=O)N4CCC[C@H]4C#N)C3)c2c1 [Example 46, N—((S)-1-(2-((S)-2-cyanopyrrolidin-1-yl)-2-oxoethyl)pyrrolidin-3-yl)-5-methoxybenzofuran-3-carboxamide]
IC50 (Recombinant human FAP [1]; [3]): 7.7 nM | inhibition at 1 µM (DPP4): 1.4% | IC50 (recombinant human DPP7): 2200 nM

N#C[C@@H]1C[C@H](F)CN1C(=O)CN1CCC(Nc2cccc3ncc(C(F)(F)F)cc23)CC1 [Example 386, (2S,4S)-4-fluoro-1-[2-[4-[[3-(trifluoromethyl)-5-quinolyl]amino]-1-piperidyl]acetyl]pyrrolidine-2-carbonitrile]
IC50 (Recombinant human FAP [2]): 19.8 nM

COc1ccc2cc(N(C)[C@H]3CCN(CC(=O)N4CCC[C@H]4C#N)C3)cnc2c1 [Example 153, (S)-1-(2-((S)-3-((7-methoxyquinolin-3-yl)(methyl)amino)pyrrolidin-1-yl)acetyl)pyrrolidine-2-carbonitrile]
IC50 (Recombinant human FAP [1]; [3]): 3.4 nM | IC50 (recombinant human DPP7): 3120 nM

N#C[C@@H]1CCCN1C(=O)CN1CC[C@H](Nc2ccnc3ccccc23)C1 [Example 5, (S)-1-(2-((S)-3-(quinolin-4-ylamino)pyrrolidin-1-yl)acetyl)pyrrolidine-2-carbonitrile]
IC50 (Recombinant human FAP [1]; [3]): 2.6 nM | IC50 (DPP4; [4]): > 1000 nM | IC50 (recombinant human DPP7): 294 nM

N#C[C@@H]1C[C@H](F)CN1C(=O)CN1CC[C@H](Nc2ccc3cccnc3c2)C1 [Example 251, (2S,4S)-4-fluoro-1-[2-[(3S)-3-(7-quinolylamino)pyrrolidin-1-yl]acetyl]pyrrolidine-2-carbonitrile]
IC50 (Recombinant human FAP [1]; [5]): 3.1 nM | IC50 (DPP4; recombinant human DPP4): 2310 nM | IC50 (recombinant human DPP7; recombinant human DPP7): 199 nM

COc1ccc2nccc(OC3CCN(CC(=O)N4C[C@@H](F)C[C@H]4C#N)CC3)c2c1 [Example 128, (2S,4S)-4-fluoro-1-(2-(4-((6-methoxyquinolin-4-yl)oxy)piperidin-1-yl)acetyl)pyrrolidine-2-carbonitrile]
IC50 (Recombinant human FAP [1]; [3]): 0.78 nM | IC50 (DPP4; [4]): > 10000 nM | IC50 (recombinant human DPP7): 5900 nM

N#C[C@@H]1CCCN1C(=O)CN1CCC(Nc2cccc3ncccc23)CC1 [Example 110, (S)-1-(2-(4-(quinolin-5-ylamino)piperidin-1-yl)acetyl)pyrrolidine-2-carbonitrile]
IC50 (Recombinant human FAP [1]; [3]): 2.2 nM | IC50 (DPP4; [4]): > 1000 nM | IC50 (recombinant human DPP7): 500 nM

N#C[C@@H]1CCCN1C(=O)CN1CC[C@H](Oc2ccnc3c(C(F)(F)F)cccc23)C1 [Example 95, (S)-1-(2-((S)-3-((8-(trifluoromethyl)quinolin-4-yl)oxy)pyrrolidin-1-yl)acetyl)pyrrolidine-2-carbonitrile]
DPP9 inhibition % at 1 μM (recombinant human DPP9): No inhibition** | IC50 (Recombinant human FAP [1]; [3]): 3.3 nM | IC50 (DPP4; [4]): > 1000 nM | IC50 (recombinant human DPP7): 4740 nM

CN(c1cc2ccccc2cn1)C1CCN(CC(=O)N2CCC[C@H]2C#N)CC1 [Example 321, (2S)-1-[2-[4-[3-isoquinolyl(methyl)amino]-1-piperidyl]acetyl]pyrrolidine-2-carbonitrile]
IC50 (Recombinant human FAP [1]; [5]): 8.8 nM | IC50 (DPP4; recombinant human DPP4): > 10000 nM | IC50 (recombinant human DPP7; recombinant human DPP7): 10500 nM

N#C[C@@H]1CCCN1C(=O)CN1CC[C@H](NC(=O)c2cccc3cccnc23)C1 [Example 34, N—((S)-1-(2-((S)-2-cyanopyrrolidin-1-yl)-2-oxoethyl)pyrrolidin-3-yl)quinoline-8-carboxamide]
IC50 (Recombinant human FAP [1]; [3]): 191 nM | hDPP4 inhibition % at 1 μM (DPP4; at 1 μM): No inhibition**

N#C[C@@H]1CCCN1C(=O)CN1CC[C@H](Oc2cccc(C(=O)c3ccccc3)c2)C1 [Example 91, (S)-1-(2-((S)-3-(3-benzoylphenoxy)pyrrolidin-1-yl)acetyl)pyrrolidine-2-carbonitrile]
inhibition at 1 µM (Recombinant human FAP [1]; read-out: hFAP inhibition % at 1 μM): 59.2% | inhibition at 1 µM (DPP4): 9.1%

N#C[C@@H]1C[C@H](F)CN1C(=O)CN1CCC(Nc2ccc(OCc3ccccc3)c3ncccc23)CC1 [Example 332, (2S,4S)-1-[2-[4-[(8-benzyloxy-5-quinolyl)amino]-1-piperidyl]acetyl]-4-fluoro-pyrrolidine-2-carbonitrile]
IC50 (Recombinant human FAP [1]; [5]): 5.5 nM | IC50 (DPP4; recombinant human DPP4): 6200 nM

N#C[C@@H]1CCCN1C(=O)CN1CC[C@H](Oc2cccc3ncccc23)C1 [Example 66, (S)-1-(2-((S)-3-(quinolin-5-yloxy)pyrrolidin-1-yl)acetyl)pyrrolidine-2-carbonitrile]
IC50 (Recombinant human FAP [1]; [3]): 5.48 nM | IC50 (DPP4; [4]): > 1000 nM | IC50 (recombinant human DPP7): 6390 nM

CN(c1cncc2ccoc12)C1CCN(CC(=O)N2CCC[C@H]2C#N)CC1 [Example 312, (2S)-1-[2-[4-[furo[3,2-c]pyridin-7-yl(methyl)amino]-1-piperidyl]acetyl]pyrrolidine-2-carbonitrile]
IC50 (Recombinant human FAP [1]; [5]): 31.8 nM | IC50 (DPP4; recombinant human DPP4): > 10000 nM
